Measurements from patent EP4431111A1, “PROBIOTIC AS VACCINE IMMUNOADJUVANT” (COREE S.r.l., priority 2023, dated 2024).

System: A549 cells
Assay: Cytotoxicity, LDH-release assay on A549 cells
Format: cell-based, human
Conditions: 1% Triton X-100, 10 minutes at room temperature, positive control C+ set at 100%
Method: The cytotoxicity of all the conditions tested was evaluated on A549 cells by the LDH activity assay. Cells were seeded in 96 well plate at a density of 3×10^4cells/well: they were leaved at 37°C for 24h and then they were co-cultured with S-protein alone or in the presence of aluminium-based adjuvant or heat-inactivated probiotic strains for 24h. At the end of this incubation period, the release of LDH in the supernatants was evaluated by commercial colorimetric kit following manufacturer's instruction. The control included medium alone used as blank. The spectrophotometric absorbance was measured at 450nm wavelength using a microplate reader.

Triton X-100 was tested, and the “release of LDH” value was “maximal release of LDH”.
